Data taken from PubChem BioAssay AID330 (DTP/NCI, 2004).
“And” between values parts separate entries of the source, which are not always exact repeats. Equal values may be shown once. Toxic doses and inconclusive results are not listed. Rule for the calls: active = survival T/C of 150% or more; inactive = T/C below 125% in these data.

System: P388 leukemia ip, CD2F1 mice, survival T/C
Experiment: NCI In Vivo Anticancer Drug Screen. Data for tumor model P388 Leukemia (intraperitoneal) in CD2F1 (CDF1) mice
Settings: endpoint: median survival time, higher = longer survival
In short: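 Mice carrying the transplanted tumor received test compound or vehicle. Survival was recorded in each group, and the value is the treated-group measurement divided by that of the vehicle-treated control group.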

[1] = dose: 50.0 mg/kg/injection, schedule: Q01DX009 (ip), vehicle: saline
[2] = dose: 50.0 mg/kg/injection, schedule: Q01DX005 (ip), vehicle: Klucel (hydroxypropylcellulose) (HPC)
[3] = dose: 100.0 mg/kg/injection, schedule: Q01DX005 (ip), vehicle: Klucel (hydroxypropylcellulose) (HPC)
[4] = dose: 200.0 mg/kg/injection, schedule: Q01DX005 (ip), vehicle: Klucel (hydroxypropylcellulose) (HPC)
[5] = dose: 75.0 mg/kg/injection, schedule: Q01DX001 (ip), vehicle: saline with Tween-80
[6] = dose: 150.0 mg/kg/injection, schedule: Q01DX001 (ip), vehicle: saline with Tween-80
[7] = dose: 50.0 mg/kg/injection, schedule: Q01DX005 (ip), vehicle: saline with Tween-80
[8] = dose: 100.0 mg/kg/injection, schedule: Q01DX005 (ip), vehicle: saline with Tween-80
[9] = dose: 200.0 mg/kg/injection, schedule: Q01DX005 (ip), vehicle: saline with Tween-80

Measured: T/C

O=C(NNC(=O)c1ccc(Cl)cc1Cl)c1ccco1
inactive: dose: 12.5 mg/kg/injection, schedule: Q01DX009 (ip), vehicle: saline 100 % of control | dose: 25.0 mg/kg/injection, schedule: Q01DX009 (ip), vehicle: saline 102 % of control and 89 % of control | dose: 50.0 mg/kg/injection, schedule: Q01DX009 (ip), vehicle: saline with Tween-80 100 % of control | [1] 102 % of control and 97 % of control

COc1ccc2c(C)c(N=C=S)c(=O)oc2c1
inactive: dose: 50.0 mg/kg/injection, schedule: Q04DX003 (ip), vehicle: suspension in saline 100 % of control | dose: 100.0 mg/kg/injection, schedule: Q04DX003 (ip), vehicle: suspension in saline 100 % of control | dose: 200.0 mg/kg/injection, schedule: Q04DX003 (ip), vehicle: suspension in saline 106 % of control

CCCCCCCCCCCCCCCCOc1ccc(C(=O)CC(=O)OC)cc1
inactive: dose: 50.0 mg/kg/injection, schedule: Q01DX009 (ip), vehicle: other 103 % of control | dose: 100.0 mg/kg/injection, schedule: Q01DX009 (ip), vehicle: other 100 % of control | dose: 200.0 mg/kg/injection, schedule: Q01DX009 (ip), vehicle: other 95 % of control | dose: 400.0 mg/kg/injection, schedule: Q01DX009 (ip), vehicle: other 87 % of control

C/C(=N\OCC(O)CNCCNC(=O)C(C)C)c1ccc(N(C)C)cc1 (stereo unspecified)
inactive: dose: 60.0 mg/kg/injection, schedule: Q01DX005 (ip), vehicle: Klucel (hydroxypropylcellulose) (HPC) 98 % of control | dose: 120.0 mg/kg/injection, schedule: Q01DX005 (ip), vehicle: Klucel (hydroxypropylcellulose) (HPC) 99 % of control

CS(=O)(=O)OCCN(CCOS(C)(=O)=O)c1ccc([N+](=O)[O-])cc1[N+](=O)[O-]
inactive: dose: 100.0 mg/kg/injection, schedule: Q01DX001 (ip), vehicle: Klucel (hydroxypropylcellulose) (HPC) 88 % of control | dose: 200.0 mg/kg/injection, schedule: Q01DX001 (ip), vehicle: Klucel (hydroxypropylcellulose) (HPC) 100 % of control | dose: 400.0 mg/kg/injection, schedule: Q01DX001 (ip), vehicle: Klucel (hydroxypropylcellulose) (HPC) 103 % of control

C[P+]1(CCc2ccc(Cl)cc2)CC=CC1
inactive: dose: 25.0 mg/kg/injection, schedule: Q04DX002 (ip), vehicle: saline 101 % of control | dose: 50.0 mg/kg/injection, schedule: Q04DX002 (ip), vehicle: saline 101 % of control

COc1ccccc1-n1c(C)nc2c(cnn2CN2CCCCC2)c1=O
inactive: [2] 99 % of control | [3] 115 % of control | [4] 101 % of control

COc1ccc(OC)c2c1CCC1(C2)NC(=O)NC1=O (stereo unspecified)
inactive: [2] 111 % of control | [3] 100 % of control | [4] 95 % of control

CN1C(=O)CN=C(c2ccccn2)c2cc(Cl)ccc21
inactive: [5] 104 % of control | [6] 104 % of control | dose: 300.0 mg/kg/injection, schedule: Q01DX001 (ip), vehicle: saline with Tween-80 104 % of control

CCOC(=O)c1cc2c(ccn2OC)[nH]1
inactive: dose: 100.0 mg/kg/injection, schedule: Q04DX003 (ip), vehicle: saline with Tween-80 102 % of control

ClCC1CCNCC1
inactive: [1] 100 % of control | dose: 100.0 mg/kg/injection, schedule: Q01DX009 (ip), vehicle: saline 100 % of control | dose: 200.0 mg/kg/injection, schedule: Q01DX009 (ip), vehicle: saline 99 % of control

Nc1ccc(OCCNS(=O)(=O)c2cccc(S(=O)(=O)F)c2)c(Cl)c1
inactive: dose: 37.5 mg/kg/injection, schedule: Q01DX001 (ip), vehicle: saline with Tween-80 95 % of control | [5] 95 % of control | [6] 90 % of control

CCCCCCC(CCCCCC)=NO
inactive: [7] 95 % of control | [8] 113 % of control | [9] 104 % of control

COc1ccc2c(c1OC)C(CC(=O)O)N1CCc3cc4c(cc3C1C2)OCO4 (stereo unspecified)
inactive: dose: 0.63 mg/kg/injection, schedule: Q01DX009 (ip), vehicle: distilled water + Tween-80 103 % of control | dose: 1.25 mg/kg/injection, schedule: Q01DX009 (ip), vehicle: distilled water + Tween-80 99 % of control | dose: 2.5 mg/kg/injection, schedule: Q01DX009 (ip), vehicle: distilled water + Tween-80 106 % of control | dose: 5.0 mg/kg/injection, schedule: Q01DX009 (ip), vehicle: distilled water + Tween-80 101 % of control | dose: 10.0 mg/kg/injection, schedule: Q01DX009 (ip), vehicle: distilled water + Tween-80 106 % of control | dose: 20.0 mg/kg/injection, schedule: Q01DX009 (ip), vehicle: distilled water + Tween-80 94 % of control

CCC(=O)OC1CCC2C3CCC(=O)OC3C(C)(CCC(=O)O)CC12C (stereo unspecified)
inactive: [7] 93 % of control | [8] 99 % of control | [9] 90 % of control
